Series [1] relates to human brain. The settings on record: in vivo; cited from earlier work.
Series [2] can be described thus: Biodistribution of deuterated 2-deoxy-D-glucose, 2H-NMR of tissue extracts, mice. The format is in vivo, mouse. How it is done: (§1) Mice and rats, males and females at equal numbers, were intravenously injected with a bolus of varying doses of deuterated 2-deoxy-D-glucose (2-DG, DDG, with varying numbers and positions of deuteration). DDGs were provided by CortecNet, France. The injection was performed under sedation in all rats (18) and in 12 of 18 mice, after which the animals woke up within 1 minute. […] Further to euthanasia, the brain, liver, kidneys, heart, and muscle were excised and immediately placed in liquid nitrogen. The frozen tissue samples were kept at −80 °C until further processing.
(§2) Extraction of the water-soluble metabolites and the lipids was carried out using the dual-phase extraction procedure as described previously [Katz-Brull R, et al. Differential routing of choline in implanted breast cancer and normal organs. Article. Magnetic Resonance in Medicine. July 2001; 46(1):31-38. doi:10.1002/mrm.1157]. Briefly, a frozen sample is placed in 10 mL of ice-cold methanol containing 0.4 mM phenyl phosphonic acid for at least 1 hour. The tissue is then homogenized in ice-cold methanol using a tissue homogenizer. Equal volumes of chloroform and water are then added to the sample tube, and the mixture is vortexed and vigorously shaken. The samples are allowed to stand at 4 °C for at least 24 hours for phase separation. The methanol-water phase is aspirated, treated with Chelex to remove divalent ions, and then lyophilized for at least 24 hours. When the samples are dry (as powder), they are redissolved in 0.5 mL of double-distilled water and transferred to 5-mm NMR tubes for scanning. The samples are scanned in a 9.4 T NMR spectrometer.

A short description of series [3]: Adverse effects after bolus intravenous injection of DDG, mice. Type of series: in vivo, mouse. The note with it: bolus i.v., 37 mg/kg to 248 mg/kg (mice and rats), awake up to 78 min. How it is done:
as §1
(§3) The animals were observed awake for up to 78 min after the injection. The injection bolus was administered in less than 1 s and ranged from 0.1 mL for mice (ca. 25-40 g) to 0.6 mL for rats (ca. 120-160 g).

Series [4] can be described thus: Adverse effects after bolus intravenous injection of DDG, rats. The format is in vivo, rat. The note with it: bolus i.v., 37 mg/kg to 248 mg/kg (mice and rats), awake up to 78 min. How it is done:
as §1, §3

The nature of series [5]: Biodistribution of deuterated 2-deoxy-D-glucose, 2H-NMR of tissue extracts, rats. The format is in vivo, rat. The note with it: for concentration: [D4]DDG bolus i.v., 37-55 mg/kg (non-labeled 2DG equivalent). How it is done: as §1, §2

In the case of `OC[C@H]1OC(O)[C@H](F)[C@@H](O)[C@@H]1O` (stereo partly drawn) [[18F]-fluoro-2-deoxy-D-glucose], in series [1], the “accumulation in the human brain” value is on record as “accumulates at very high levels in the human brain”.
As to `[2H]C([2H])(O)[C@H]1OC(O)C[C@@H](O)[C@@H]1O` (stereo partly drawn) [[D2]DDG, [6,6-D2]2-deoxy-D-glucose], the concentration amounted to 400 µM in series [2] ([D2]DDG bolus i.v., 169-182 mg/kg (non-labeled 2DG equivalent), n=1, read-out: concentration in the liver) and 1190 µM in series [2] ([D2]DDG bolus i.v., 169-182 mg/kg (non-labeled 2DG equivalent), n=2, read-out: concentration in the brain). Further, the adverse effects result in series [3] and in series [4] was “no adverse effects” each time.
On to `[2H]C([2H])(O)[C@H]1OC(O)C[C@@]([2H])(O)[C@]1([2H])O` (stereo partly drawn) [[D4]DDG, [3,4,6,6-D4]2-deoxy-D-glucose], for which the “2H-NMR signal in rat brain extract” value in series [5] (FIG. 7, 45 mg/kg, awake 36 min, 9.4 T) is “due to the deuterons of [D4]DDG”; in series [5] (FIG. 7 legend, awake 30 min) it was “the right signal (full arrow) is of deuterons of [3,4,6,6-D4]2-deoxy-D-glucose”. In addition, the concentration in series [5] (n=2, read-out: concentration in the heart) worked out at 2700 µM; in series [5] (n=6, read-out: concentration in the brain) it was 1600 µM; in series [5] (n=6, read-out: concentration in the muscle) it was 80 µM; in series [2] ([D4]DDG bolus i.v., 43-45 mg/kg (non-labeled 2DG equivalent), n=1, read-out: concentration in the kidneys) it was 1790 µM; in series [2] ([D4]DDG bolus i.v., 43-45 mg/kg (non-labeled 2DG equivalent), n=2, read-out: concentration in the heart) it was 3140 µM; in series [2] ([D4]DDG bolus i.v., 43-45 mg/kg (non-labeled 2DG equivalent), n=2, read-out: concentration in the liver), 230 µM. Moreover, the adverse effects result in series [3] and in series [4] was “no adverse effects” in each case.

Values taken from patent US20260355357A1, “DIAGNOSTIC AGENTS AND USES THEREOF” (HADASIT MEDICAL RESEARCH SERVICES AND DEVELOPMENT LTD., priority 2023, published 2026).
